Tests used:
[1] = Stuttering of a patient treated with pagoclone in a double-blind placebo-controlled panic disorder clinical trial; assay type: in vivo, human
Description: A patient is enrolled in a clinical trial examining the efficacy and safety of pagoclone, a drug which works at the GABAA receptor, in the treatment of panic disorder, an anxiety disorder. […] The double-blind placebo-controlled trial conceals the drug type until the conclusion of the trial. During the trial the patient is taking 0.60 mg pagoclone/day (0.20 mg t.i.d.). The patient had never before experienced this sort of an effect on their stuttering and they had taken, in the past, other anti-anxiety medications for their psychiatric condition, none of which had such an effect on their stuttering. During the trial, both they and the clinician treating them in the clinical trial notice the reduction in their stuttering, which is documented at their week 2 visit. […] During the trial they also are taking ibuprofen and a prophylactic for urinary tract infections.

[2] = Elliot et al. 1985; cited from earlier work
[3] = eight-week course, randomized patients; cited from earlier work

In the case of `CC(C)CCC(=O)CC1c2ccccc2C(=O)N1c1ccc2ccc(Cl)nc2n1` (single isomer, unassigned; (+)) [pagoclone, (+)2-(7-chloro-1,8-naphthyridine-2-yl)-3-(5-methyl-2-oxo-hexyl)-1-isoindolinone], the “effect on stuttering while taking the drug” value ([1]; patient, fairly severe stuttering, 0.60 mg pagoclone/day (0.20 mg t.i.d.), documented at week 2 visit) was “significant reduction in their fairly severe stuttering problem”, the “effect on anxiety and psychiatric condition” value ([1]; same patient with panic disorder, 0.60 mg pagoclone/day) was “reduction in their anxiety and improvement in their psychiatric condition” and the “stuttering after stopping the drug” value ([1]; same patient, after stopping pagoclone) was “returns to the pre-drug level within a day”.
In the case of `Cc1nnc2n1-c1ccc(Cl)cc1C(c1ccccc1)=NC2` [Alprazolam], the drug-induced stuttering [2] is given as “can induce stuttering”.
For `O=C(CCCN1CCC(O)(c2ccc(Cl)cc2)CC1)c1ccc(F)cc1` [haloperidol], the “effect on stuttering, objective measures of speech” value [3] is listed as “significant improvement”.

Reference: patent US8618127B2, “Methods and compositions for alleviating stuttering” (Endo Pharmaceuticals Solutions Inc., priority 2000, dated 2013)
